The subject of experiment [1] is CL1-0 and H1975 cells. Put plainly: Cell cycle analysis (flow cytometry). The format is cell-based, human. Conditions: 24 h, propidium iodide. On the procedure:
After treatment, cells were trypsinized and fixed in ice-cold 70% ethanol overnight. Fixed cells were washed with PBS and stained with 0.5 mL of a propidium iodide (10 μg/mL)/RNase (20 μg/mL) solution for 30 minutes. The cellular DNA content was analyzed with a FACSCanto flow cytometer (Becton Dickinson).
On the technique in general: Flow cytometry measures light scatter and fluorescence of single cells or particles in a stream.

Another experiment has as its system A549. Put plainly: Cell cytotoxicity assay (MTS), A549. In kind it is cell-based. Conditions: Homo sapiens, A549, 72 h. As to the method: (§1) Cells were seeded into the wells of 96-well plates (2000 cells/well). After an overnight culture, the cells were treated with different concentrations of a compound for 72 h. The CellTiter 96 AQueous one-solution cell proliferation assay (MTS) reagent was used to determine cytotoxicity. After treatment with a compound, 20 μL of the MTS reagent was added to each well and the plates were incubated at 37° C. for 1-4 h. Next, the absorbance at 490 nm of the culture medium in each well was determined using a VersaMax microplate reader (Molecular Devices).

A further experiment concerns HT-29. Put plainly: Cell cytotoxicity assay (MTS), HT-29. The format is cell-based. Conditions: Homo sapiens. On the procedure: as §1
The target in experiment [2] is T1, purified centrosomes and tubulin (Sus scrofa, UniProt P02554).
T1 construct: purchased Cytoskeleton
The experiment in a line: In vitro microtubule nucleation assay. In kind it is biochemical, porcine. On the procedure: Purified centrosomes were incubated with or without AS1712 and with porcine tubulin (Cytoskeleton) in 80 mM PIPES, 1 mM MgCl2, 1 mM EGTA, and 1 mM GTP, pH 6.8 for 8 min at 37° C. Microtubule asters were fixed in 1% glutaraldehyde, sedimented onto acid-treated coverslips, and finally subjected to immunofluorescence with anti-α-tubulin. The fiber lengths of the microtubule asters were measured using MetaMorph image analysis software (n=20/group).

The test system of experiment [3] is A549, CL1-0, PC9, and H1975. The experiment in a line: MTS assay, non-small cell lung cancer cell lines. The format is cell-based. Conditions: Homo sapiens; A549, CL1-0, PC9, H1975; 72 h MTS; read-out: IC50 values for the affected cell lines. As to the method:
as §1
(In general: Tetrazolium dyes change colour on reduction, which living cells bring about.)

A further experiment has as its system CCRF-CEM. The experiment in a line: Cell cytotoxicity assay (MTS), CCRF-CEM. In kind it is cell-based. Conditions: Homo sapiens. On the procedure: as §1
The subject of the next experiment is H1975 cells. The experiment in a line: Cell cytotoxicity assay (MTS), H1975. The format is cell-based, human. Conditions: H1975 cells, 72 h, MTS, read-out: IC50. On the procedure:
as §1

The next experiment has as its system KB. Put plainly: Cell cytotoxicity assay (MTS), KB. The format is cell-based. Conditions: Homo sapiens. As to the method: as §1
The target in a further experiment is tubulin (Sus scrofa, UniProt P02554). The experiment in a line: Binding affinity assay (surface plasmon resonance). Conditions: steady-state model, 25° C.; read-out: dissociation constant (KD) for the tubulin-AS1712 complex. On the procedure: Surface plasmon resonance technology was used to analyze the binding affinity of AS1712 for tubulin. A Series S Sensor Chip SA was conditioned with three consecutive 1-min injections of 1 M NaCl in 50 mM NaOH, and then 50 μg/mL biotin-tubulin (Cytoskeleton) was immobilized onto the sensor chip surface in a Biacore T200 system (GE Healthcare) to attain 3,000 resonance units. One flow cell on the chip was left free to serve as the negative control. Biocytin (Sigma Aldrich) was used to block any remaining unmodified streptavidin sites. Different concentrations of AS1712 in 10 mM HEPES, 150 mM NaCl, 3 mMEDTA, and 0.05% surfactant P20, pH 7.4 were separately injected over the sensor chip surface to measure the association and dissociation of AS1712 and tubulin at 25° C. The value of KD was calculated using the steady-state fitting mode in Biacore T200 Evaluation Software.
For orientation: SPR reads the build-up and loss of mass on a sensor chip optically.

Another experiment concerns Hs578t. The experiment in a line: Cell cytotoxicity assay (MTS), Hs578t. Conditions: Homo sapiens, Hs-578T, 72 h. The format is cell-based. As to the method:
as §1

In another experiment the test system is Du-145. The experiment in a line: Cell cytotoxicity assay (MTS), Du-145. The format is cell-based. Conditions: Homo sapiens. On the procedure:
as §1

In experiment [4] the target is colchicine site of tubulin (Sus scrofa, UniProt P02554). Put plainly: Colchicine competition assay. In kind it is binding. Conditions: 37° C. for 1 h. On the procedure:
Tubulin ([…]) and colchicine ([…]) were incubated with the various concentrations of AS1712, nocodazole, or vincristine in 80 mM PIPES, 2 mM MgCl2, 0.5 mM EGTA, pH 6.9 at 37° C. for 1 h. Fluorescence intensities (excitation and emission wavelengths at 365 and 435 nm, respectively) were recorded using an Infinite M200 plate reader (Tecan). Fluorescence values were normalized to the DMSO control.

The subject of the next experiment is SW620. Put plainly: Cell cytotoxicity assay (MTS), SW620. In kind it is cell-based. Conditions: Homo sapiens, SW-620. As to the method:
as §1

The test system of another experiment is 37T. The experiment in a line: Cell cytotoxicity assay (MTS), 37T. In kind it is cell-based. Conditions: Homo sapiens, 72 h. On the procedure: as §1
In experiment [5] the test system is human fibroblast (HFB) cells. Put plainly: Cell cytotoxicity assay (MTS), human fibroblast. Conditions: normal cell line HFB. The format is cell-based. On the procedure:
as §1

Another experiment relates to PC9. The experiment in a line: Cell cytotoxicity assay (MTS), PC9. In kind it is cell-based. Conditions: Homo sapiens, PC-9, PC9, 72 h. On the procedure:
as §1

Experiment [6] has as its system CL1-0 and H1975 cells. Put plainly: Colony formation assay. The format is cell-based, human. Conditions: 12.5-200 nM, 14 days. As to the method: Cells were seeded into the wells of six-well plates (1000 cells/well). After overnight culture, the cells were treated with various concentrations of AS1712 for 2 weeks. Then, the colonies in each well were fixed with 3.7% paraformaldehyde, stained with 0.04% crystal violet, and dissolved in 1 ml DMSO. The absorbance at 590 nm of each DMSO solution was read using the VersaMax microplate reader.

The values below come from patent publication US12109207B2, “Methods of using 4(1H)-quinolone derivatives” (Academia Sinica, priority 2019, dated 2024).

Where two headings read alike, the source gives them in different places.

Usually IC50 stands for the concentration that gives 50% inhibition. What is called Kd is the free concentration of one partner at which half of the binding sites on the other are occupied at equilibrium, for simple one-to-one binding. In the case of `CCOC(=O)c1ccc2[nH]c(-c3ccccc3)cc(=O)c2c1` [AS1712, Ethyl 4-oxo-2-phenyl-1,4-dihydroquinoline-6-carboxylate], the “sub-G1 and G2/M-phase population” value in the experiment on CL1-0 and H1975 cells [1] was “increased”. Moreover, the IC50 was 20 ± 0.98 nM in the experiment with A549; 48 ± 0.62 nM in the experiment on HT-29; 16 to 33 nM in [3]; 45 ± 0.45 nM with CCRF-CEM; 35 nM in the experiment on H1975 cells; 33 ± 4.86 nM in the experiment with H1975 cells (Homo sapiens, NCI-H1975, 72 h). Also, the IC50 in the experiment on KB was 37 ± 0.27 nM; in the experiment with Hs578t, 41 ± 2.87 nM; in the experiment on Du-145, 47 ± 1.28 nM; in the experiment on SW620 it was 35 ± 1.18 nM; in the experiment with 37T, 34 ± 2.99 nM; in experiment [5], more than 10000 nM. In addition, in the experiment with PC9, 17 ± 2.09 nM corresponded to half-maximal inhibition (IC50). For the same compound, in experiment [2], the “formation of microtubule asters from the centrosome” value is recorded as “substantially inhibited”. In addition, the Kd at tubulin turned out to be 13800 nM. Also, the colchicine fluorescence entry in [4] is “decreased the colchicine fluorescence in a dose-dependent manner”. The colony-forming abilities result in the experiment with CL1-0 and H1975 cells [6] is reported as “suppressed in a dose-dependent manner”.
